Biological target: CDK2 (human) (UniProt P24941)
Assay: Enzyme Assay
Conditions: not given

Row | IC50 [µM] | SMILES
1 | > 20 | CCN(CC)CCCNC(=O)c1c(C)[nH]c(/C=C2\C(=O)Nc3ccc(Br)cc32)c1-c1ccccc1

Biological target: EGFR (human) (UniProt P00533)
Assay: not given
Conditions: not given

EGFR (human), sequence (P00533 whole entry, looked up): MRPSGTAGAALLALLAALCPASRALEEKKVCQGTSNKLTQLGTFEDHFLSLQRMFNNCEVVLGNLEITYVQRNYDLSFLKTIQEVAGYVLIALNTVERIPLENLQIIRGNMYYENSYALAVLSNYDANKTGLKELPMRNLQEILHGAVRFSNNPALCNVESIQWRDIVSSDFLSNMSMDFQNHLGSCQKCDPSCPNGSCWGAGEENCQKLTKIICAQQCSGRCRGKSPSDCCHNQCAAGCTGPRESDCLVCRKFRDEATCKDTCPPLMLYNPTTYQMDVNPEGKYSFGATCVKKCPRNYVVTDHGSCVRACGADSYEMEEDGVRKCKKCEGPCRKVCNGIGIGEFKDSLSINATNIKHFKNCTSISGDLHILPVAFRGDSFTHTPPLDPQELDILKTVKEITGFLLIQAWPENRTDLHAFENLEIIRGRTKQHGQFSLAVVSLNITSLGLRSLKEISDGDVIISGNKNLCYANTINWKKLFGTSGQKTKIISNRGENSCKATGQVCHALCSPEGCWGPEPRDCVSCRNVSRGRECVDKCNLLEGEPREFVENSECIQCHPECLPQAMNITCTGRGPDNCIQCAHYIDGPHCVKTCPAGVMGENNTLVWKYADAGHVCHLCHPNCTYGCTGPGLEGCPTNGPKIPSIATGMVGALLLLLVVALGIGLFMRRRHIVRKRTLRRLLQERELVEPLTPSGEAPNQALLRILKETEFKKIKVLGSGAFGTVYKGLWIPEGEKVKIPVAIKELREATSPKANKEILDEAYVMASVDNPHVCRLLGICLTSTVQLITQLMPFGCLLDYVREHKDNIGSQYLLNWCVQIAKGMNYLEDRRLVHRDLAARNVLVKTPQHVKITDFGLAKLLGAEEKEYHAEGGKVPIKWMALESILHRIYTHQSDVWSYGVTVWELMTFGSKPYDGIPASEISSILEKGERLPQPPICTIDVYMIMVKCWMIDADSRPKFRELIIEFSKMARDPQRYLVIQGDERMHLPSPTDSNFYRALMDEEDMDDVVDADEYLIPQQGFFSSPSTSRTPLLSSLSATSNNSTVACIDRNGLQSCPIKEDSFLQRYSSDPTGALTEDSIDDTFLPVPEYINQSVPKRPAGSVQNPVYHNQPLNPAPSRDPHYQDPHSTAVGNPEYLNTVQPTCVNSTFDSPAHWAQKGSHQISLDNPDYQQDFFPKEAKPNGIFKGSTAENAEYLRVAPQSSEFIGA

Row | SMILES | IC50 [µM]
2 | CCN(CC)CCNC(=O)c1c(C)[nH]c(/C=C2\C(=O)Nc3ccc(S(=O)(=O)N(C)C)cc32)c1C | > 100
3 | Cc1[nH]c(/C=C2\C(=O)Nc3cc(-c4ccccc4)ccc32)c(C)c1C(=O)NCCN(C)C | > 100
4 | CCN(CC)CCCNC(=O)c1[nH]c(/C=C2\C(=O)Nc3cc(OC)ccc32)cc1C | > 100
5 | Cc1c(C(=O)NCCCN2CCOCC2)[nH]c(/C=C2\C(=O)Nc3ccc(Br)cc32)c1C(=O)c1ccccc1 | > 100
6 | Cc1[nH]c(/C=C2\C(=O)Nc3ccc(-c4ccccc4)cc32)c(C)c1C(=O)NCCCn1ccnc1 | > 100
7 | Cc1[nH]c(/C=C2\C(=O)Nc3ccc(Cl)cc32)c(C)c1C(=O)NCCN(C)C | > 100
8 | CCN(CC)CCNC(=O)c1c(C(C)C)[nH]c(/C=C2\C(=O)Nc3ccc(Br)cc32)c1C(C)C | > 100
9 | CCN(CC)CCCNC(=O)c1c(C)[nH]c(/C=C2\C(=O)Nc3cccc(C(=O)Nc4ccc(OC)c(Cl)c4)c32)c1C | > 100
10 | COc1ccccc1-c1ccc2c(c1)NC(=O)/C2=C\c1[nH]c(C)c(C(=O)NCCN(C)C)c1-c1ccccc1 | > 100

Continued, values first:

Row | IC50 [µM] | SMILES
11 | > 100 | CCN(CC)CCCNC(=O)c1c(C)[nH]c(/C=C2\C(=O)Nc3cc(-c4ccccc4)ccc32)c1C
12 | > 100 | COc1ccccc1-c1ccc2c(c1)NC(=O)/C2=C\c1[nH]c(C)c(C(=O)NCCN2CCCC2)c1-c1ccccc1
13 | > 100 | CCOC(=O)CNC(=O)c1c[nH]c(/C=C2\C(=O)Nc3ccc(S(=O)(=O)NC)c(C)c32)c1C
14 | > 100 | CNS(=O)(=O)c1ccc2c(c1)/C(=C/c1[nH]cc(C(=O)NCC(=O)O)c1C)C(=O)N2
15 | > 100 | CCN(CC)CCNC(=O)c1c(C)[nH]c(/C=C2\C(=O)Nc3cc(-c4cc(Cl)cc(Cl)c4)ccc32)c1C
16 | > 100 | CCOC(=O)CNC(=O)c1c[nH]c(/C=C2\C(=O)Nc3ccc(S(=O)(=O)NC)cc32)c1C
17 | > 100 | CCN(CC)CCCNC(=O)c1[nH]c(/C=C2\C(=O)Nc3ccc(OC)cc32)cc1C
18 | > 100 | CNS(=O)(=O)c1ccc2c(c1)/C(=C/c1[nH]cc(C(=O)O)c1C)C(=O)N2
19 | > 100 | Cc1[nH]c(/C=C2\C(=O)Nc3ccc(S(=O)(=O)N(C)C)cc32)c(C)c1C(=O)NCCN1CCCC1

Biological target: EGFR (murine) (UniProt P00533)
Assay: not given
Conditions: nih3t3/c7

EGFR (murine), sequence (P00533 whole entry, looked up): as above

Row | SMILES | IC50 [µM]
20 | CCN(CC)CCN(C)C(=O)c1ccc(/C=C2\C(=O)Nc3cc(-c4ccccc4)ccc32)[nH]1 | > 100
21 | Cc1[nH]c(/C=C2\C(=O)Nc3cc(-c4ccccc4)ccc32)c(C)c1C(=O)NCCN1CCCC1 | > 100
22 | CCN(CC)CCNC(=O)c1c(C)[nH]c(/C=C2\C(=O)Nc3cc(-c4ccccc4)ccc32)c1C | > 100
23 | CCOC(=O)c1cc(C)c(/C=C2\C(=O)Nc3ccc(Cl)cc32)[nH]1 | > 100
24 | Cc1[nH]c(/C=C2\C(=O)Nc3ccc(Br)cc32)c(C)c1C(=O)NCCCn1ccnc1 | > 100
25 | Cc1[nH]c(/C=C2\C(=O)Nc3cc(-c4cccnc4)ccc32)c(C)c1C(=O)NCCN1CCCC1 | > 100
26 | Cc1cc(C(=O)O)[nH]c1/C=C1\C(=O)Nc2ccccc21 | > 100
27 | Cc1[nH]c(/C=C2\C(=O)Nc3ccc(-c4ccccc4)cc32)c(C)c1C(=O)NCCCn1ccnc1 | > 100
28 | CCOC(=O)c1c(C)[nH]c(/C=C2\C(=O)Nc3ccc(Br)cc32)c1-c1ccccc1 | > 100
29 | CCN(CC)CCNC(=O)c1ccc(/C=C2\C(=O)Nc3cc(-c4ccccc4)ccc32)[nH]1 | > 100

Second part, the compound after the results:

Row | IC50 [µM] | SMILES
30 | > 100 | CCN(CC)CCNC(=O)c1c(C)[nH]c(/C=C2\C(=O)Nc3cc(-c4cccnc4)ccc32)c1C
31 | > 100 | CCN(CC)CCNC(=O)c1c(C)[nH]c(/C=C2\C(=O)Nc3cc(-c4cc(Cl)cc(Cl)c4)ccc32)c1C
32 | > 100 | Cc1[nH]c(/C=C2\C(=O)Nc3ccc(Br)cc32)c(C)c1C(=O)NCCN1CCCC1
33 | > 100 | Cc1[nH]c(/C=C2\C(=O)Nc3cc(-c4ccccc4)ccc32)c(C)c1C(=O)NCCCn1ccnc1
34 | > 100 | Cc1cc(C(=O)O)[nH]c1/C=C1\C(=O)N(C)c2ccccc21
35 | > 100 | COC(=O)c1cc(C)c(/C=C2\C(=O)Nc3ccccc32)[nH]1
36 | > 100 | Cc1cc(C(=O)O)[nH]c1/C=C1\C(=O)Nc2ccc(Cl)cc21

Reference: the Kinase Knowledgebase extract (Sharma et al. 2016)
